According to the supplement of paper PMC9663587:

Tests used:
YKL-5-124 [1] = compound: T1, C=CC(=O)Nc1ccc(C(=O)Nc2[nH]nc3c2CN(C(=O)N[C@H](CN(C)C)c2ccccc2)C3(C)C)cc1 [YKL-5-124]
YKL-5-124 [2] = compound: T1, YKL-5-124; experiment: increase in dead-cell fraction, 72 h; higher = more death;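 note: breast cancer cell lines in 384-well plates, stained with Hoechst plus LIVE/DEAD far red dye and imaged, cells above an LDR intensity threshold counted dead, Hoechst-negative corpses included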
THZ531 = compound: CN(C)C/C=C/C(=O)Nc1ccc(C(=O)N2CCC[C@@H](Nc3ncc(Cl)c(-c4c[nH]c5ccccc45)n3)C2)cc1 [THZ531]; experiment: as above
Everolimus = compound: CO[C@H]1C[C@@H]2CC[C@@H](C)[C@@](O)(O2)C(=O)C(=O)N2CCCC[C@H]2C(=O)O[C@H]([C@H](C)C[C@@H]2CC[C@@H](OCCO)[C@H](OC)C2)CC(=O)[C@H](C)/C=C(\C)[C@@H](O)[C@@H](OC)C(=O)[C@H](C)C[C@H](C)/C=C/C=C/C=C/1C [Everolimus]
[3] = compound: COc1cccc(OCCCN)c1-c1cc(Nc2cnc(C#N)cn2)n[nH]1
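Throughout, for GR50, 72 h: breast cancer and non-malignant breast epithelial cell lines, Deep Dye Drop or Dye Drop imaging, nine half-log doses, GR normalized to time-zero plates and DMSO-only controls.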

| Cell Line | GR50, 72 h (YKL-5-124 [1]) | increase in dead-cell fraction (YKL-5-124 [2]; 0.001 µM) | increase in dead-cell fraction (YKL-5-124 [2]; 0.003162 µM) | increase in dead-cell fraction (YKL-5-124 [2]; 0.01 µM) | increase in dead-cell fraction (YKL-5-124 [2]; 0.03162 µM) | increase in dead-cell fraction (YKL-5-124 [2]; 0.1 µM) | increase in dead-cell fraction (YKL-5-124 [2]; 0.3162 µM) | increase in dead-cell fraction (YKL-5-124 [2]; 1 µM) | increase in dead-cell fraction (YKL-5-124 [2]; 3.162 µM) | increase in dead-cell fraction (YKL-5-124 [2]; 10 µM) | increase in dead-cell fraction (THZ531; 0.0001 µM) | increase in dead-cell fraction (THZ531; 0.0003162 µM) | increase in dead-cell fraction (THZ531; 0.001 µM) | increase in dead-cell fraction (THZ531; 0.003162 µM) | increase in dead-cell fraction (THZ531; 0.01 µM) | increase in dead-cell fraction (THZ531; 0.03162 µM) | increase in dead-cell fraction (THZ531; 0.1 µM) | increase in dead-cell fraction (THZ531; 0.3162 µM) | GR50, 72 h (Everolimus) | GR50, 72 h [3] | increase in dead-cell fraction (THZ531; 1 µM) |
| --- | --- | --- | --- | --- | --- | --- | --- | --- | --- | --- | --- | --- | --- | --- | --- | --- | --- | --- | --- | --- | --- |
| EVSAT | < 0.001 µM | 0.0967 | 0.0973 | 0.147 | 0.16 | 0.143 | 0.185 | 0.183 | 0.204 | 0.697 | 0.0033 | -0.0022 | -0.0014 | -0.0011 | 0.0002 | -0.0005 | 0.0333 | 0.372 | – | – | – |
| HCC1569 | – | 0.0331 | 0.014 | -0.0042 | 0.0104 | -0.0403 | 0.0447 | 0.0404 | 0.0237 | 0.151 | 0.0019 | -0.0034 | -0.0007 | 0.0032 | 0.0103 | 0.0155 | 0.161 | 0.273 | > 10 µM | 0.00228 µM | 0.0822 |
| BT474 | < 0.001 µM | 0.0145 | 0.0218 | 0.019 | 0.0189 | 0.0303 | 0.0351 | 0.0209 | 0.0235 | 0.182 | -0.0031 | 0.0048 | 0.003 | -0.0009 | -0.0036 | 0.0037 | 0.17 | 0.413 | – | – | 0.229 |
| HCC202 | – | 0.0491 | 0.0507 | 0.0643 | 0.0596 | 0.0803 | 0.0716 | 0.0671 | 0.081 | 0.213 | -0.0053 | 0.002 | -0.0003 | -0.0311 | 0.0109 | 0.0036 | 0.066 | 0.128 | – | 0.00549 µM | 0.088 |
| MDAMB330 | – | 0.0025 | 0.0078 | 0.0057 | 0.0038 | 0.0034 | 0.0041 | 0.0016 | 0.0166 | 0.131 | 0.0039 | -0.0007 | 0.0004 | 0.0018 | 0.0041 | 0.0164 | 0.664 | 0.519 | < 0.001 µM | 0.000237 µM | 0.413 |
| 184A1 | < 0.001 µM | 0.02 | 0.0379 | 0.119 | 0.122 | 0.147 | 0.0805 | 0.137 | 0.179 | 0.34 | 0.0016 | 0.0042 | 0.0042 | 0.0053 | -0.004 | 0.0024 | 0.0107 | 0.0204 | > 10 µM | – | 0.447 |
| UACC893 | 0.00386 µM | -0.0033 | 0.0007 | 0.002 | 0.0043 | 0.007 | 0.0024 | -0.0001 | 0.0003 | 0.163 | -0.0016 | 0.0009 | 0.0027 | 0.0008 | -0.0019 | 0.0067 | 0.0859 | 0.0937 | – | 0.0579 µM | 0.109 |
